{"source": "ChEMBL document CHEMBL1201862", "about": "“PubChem BioAssay data set” (2004)", "key": {"[1]": {"molecular_target": "T1, Histone-lysine N-methyltransferase NSD2 (Homo sapiens, UniProt O96028)", "T1 sequence (O96028 whole entry)": "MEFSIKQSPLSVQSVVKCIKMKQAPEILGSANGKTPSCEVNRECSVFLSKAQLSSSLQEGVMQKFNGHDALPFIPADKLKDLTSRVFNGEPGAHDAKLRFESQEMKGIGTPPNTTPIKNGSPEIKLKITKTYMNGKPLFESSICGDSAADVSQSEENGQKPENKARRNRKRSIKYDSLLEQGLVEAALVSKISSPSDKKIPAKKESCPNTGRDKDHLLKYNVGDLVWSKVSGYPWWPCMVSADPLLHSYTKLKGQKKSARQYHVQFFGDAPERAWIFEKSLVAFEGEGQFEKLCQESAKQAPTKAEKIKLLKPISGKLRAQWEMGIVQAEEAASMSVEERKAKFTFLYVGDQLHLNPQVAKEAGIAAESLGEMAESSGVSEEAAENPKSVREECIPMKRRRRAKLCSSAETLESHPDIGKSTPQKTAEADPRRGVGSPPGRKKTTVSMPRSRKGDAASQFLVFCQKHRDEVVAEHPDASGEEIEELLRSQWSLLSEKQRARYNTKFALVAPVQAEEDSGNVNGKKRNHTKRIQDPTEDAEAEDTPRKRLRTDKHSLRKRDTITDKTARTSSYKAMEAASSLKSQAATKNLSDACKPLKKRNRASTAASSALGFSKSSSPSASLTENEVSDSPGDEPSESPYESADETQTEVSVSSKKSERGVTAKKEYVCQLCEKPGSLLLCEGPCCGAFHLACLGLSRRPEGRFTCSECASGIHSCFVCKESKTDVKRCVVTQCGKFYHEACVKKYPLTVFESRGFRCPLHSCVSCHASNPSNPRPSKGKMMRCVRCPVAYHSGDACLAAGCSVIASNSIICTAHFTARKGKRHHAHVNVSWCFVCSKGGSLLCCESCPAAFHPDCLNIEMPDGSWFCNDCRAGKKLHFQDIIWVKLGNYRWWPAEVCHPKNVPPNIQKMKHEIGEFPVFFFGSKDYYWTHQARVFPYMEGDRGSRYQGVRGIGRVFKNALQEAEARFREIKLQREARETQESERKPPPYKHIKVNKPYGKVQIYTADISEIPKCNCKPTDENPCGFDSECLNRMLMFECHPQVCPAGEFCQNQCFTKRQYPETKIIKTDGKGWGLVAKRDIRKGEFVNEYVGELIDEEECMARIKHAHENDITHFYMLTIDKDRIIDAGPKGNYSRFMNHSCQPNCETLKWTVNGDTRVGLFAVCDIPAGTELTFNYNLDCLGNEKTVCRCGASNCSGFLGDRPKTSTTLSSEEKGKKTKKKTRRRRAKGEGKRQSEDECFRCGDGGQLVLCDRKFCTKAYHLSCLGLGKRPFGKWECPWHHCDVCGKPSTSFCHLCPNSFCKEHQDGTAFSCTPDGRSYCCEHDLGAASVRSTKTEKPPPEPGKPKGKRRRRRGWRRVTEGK", "type": "biochemical"}, "HEK293": {"system": "HEK293", "assay": "cells", "type": "functional, cell-based", "conditions": "Homo sapiens"}, "[2]": {"assay": "Luminescence-based cell-based high throughput dose response assay to identify activators of the DAF-12 from the parasite S. stercoralis (ssDAF-12).", "type": "functional"}, "[3]": {"molecular_target": "T2, Sentrin-specific protease 6 (Homo sapiens, UniProt Q9GZR1)", "T2 sequence (Q9GZR1 whole entry)": "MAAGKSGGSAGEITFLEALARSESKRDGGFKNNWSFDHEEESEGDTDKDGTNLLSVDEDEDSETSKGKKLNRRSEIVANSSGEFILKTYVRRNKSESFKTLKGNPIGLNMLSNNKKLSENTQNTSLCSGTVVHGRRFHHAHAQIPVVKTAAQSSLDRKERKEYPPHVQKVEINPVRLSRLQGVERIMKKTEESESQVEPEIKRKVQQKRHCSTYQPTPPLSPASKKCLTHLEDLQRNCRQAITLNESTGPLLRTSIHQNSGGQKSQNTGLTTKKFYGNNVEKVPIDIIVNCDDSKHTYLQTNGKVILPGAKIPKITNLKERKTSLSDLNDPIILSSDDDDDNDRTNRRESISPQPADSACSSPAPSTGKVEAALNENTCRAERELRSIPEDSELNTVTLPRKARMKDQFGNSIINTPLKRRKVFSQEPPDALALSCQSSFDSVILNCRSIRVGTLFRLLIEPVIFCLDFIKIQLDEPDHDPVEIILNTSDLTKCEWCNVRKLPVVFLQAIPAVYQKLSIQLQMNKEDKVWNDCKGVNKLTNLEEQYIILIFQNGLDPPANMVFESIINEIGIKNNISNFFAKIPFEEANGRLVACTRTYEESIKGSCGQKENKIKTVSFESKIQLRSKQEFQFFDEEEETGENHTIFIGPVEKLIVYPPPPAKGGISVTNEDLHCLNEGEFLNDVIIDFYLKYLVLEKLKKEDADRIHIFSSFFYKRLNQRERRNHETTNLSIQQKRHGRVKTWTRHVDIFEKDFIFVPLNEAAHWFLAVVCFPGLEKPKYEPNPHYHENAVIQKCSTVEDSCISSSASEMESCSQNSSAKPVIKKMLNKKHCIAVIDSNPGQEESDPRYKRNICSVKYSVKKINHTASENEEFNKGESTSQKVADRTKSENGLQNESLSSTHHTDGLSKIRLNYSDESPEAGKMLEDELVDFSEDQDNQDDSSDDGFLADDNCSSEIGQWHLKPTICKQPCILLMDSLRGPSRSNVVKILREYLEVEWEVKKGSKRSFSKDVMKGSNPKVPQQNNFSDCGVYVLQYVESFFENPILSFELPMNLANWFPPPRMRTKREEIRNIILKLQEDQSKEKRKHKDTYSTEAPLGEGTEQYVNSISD", "assay": "SENP6 protease inhibitors, SAR follow-up, biochemical, luminescence, set 2 (AID 588598)", "type": "functional"}, "[4]": {"molecular_target": "Cystic fibrosis transmembrane conductance regulator/Golgi-associated PDZ and coiled-coil motif-containing protein (Homo sapiens, UniProt P13569+Q9HD26)", "sequence (P13569 whole entry, other chains not shown)": "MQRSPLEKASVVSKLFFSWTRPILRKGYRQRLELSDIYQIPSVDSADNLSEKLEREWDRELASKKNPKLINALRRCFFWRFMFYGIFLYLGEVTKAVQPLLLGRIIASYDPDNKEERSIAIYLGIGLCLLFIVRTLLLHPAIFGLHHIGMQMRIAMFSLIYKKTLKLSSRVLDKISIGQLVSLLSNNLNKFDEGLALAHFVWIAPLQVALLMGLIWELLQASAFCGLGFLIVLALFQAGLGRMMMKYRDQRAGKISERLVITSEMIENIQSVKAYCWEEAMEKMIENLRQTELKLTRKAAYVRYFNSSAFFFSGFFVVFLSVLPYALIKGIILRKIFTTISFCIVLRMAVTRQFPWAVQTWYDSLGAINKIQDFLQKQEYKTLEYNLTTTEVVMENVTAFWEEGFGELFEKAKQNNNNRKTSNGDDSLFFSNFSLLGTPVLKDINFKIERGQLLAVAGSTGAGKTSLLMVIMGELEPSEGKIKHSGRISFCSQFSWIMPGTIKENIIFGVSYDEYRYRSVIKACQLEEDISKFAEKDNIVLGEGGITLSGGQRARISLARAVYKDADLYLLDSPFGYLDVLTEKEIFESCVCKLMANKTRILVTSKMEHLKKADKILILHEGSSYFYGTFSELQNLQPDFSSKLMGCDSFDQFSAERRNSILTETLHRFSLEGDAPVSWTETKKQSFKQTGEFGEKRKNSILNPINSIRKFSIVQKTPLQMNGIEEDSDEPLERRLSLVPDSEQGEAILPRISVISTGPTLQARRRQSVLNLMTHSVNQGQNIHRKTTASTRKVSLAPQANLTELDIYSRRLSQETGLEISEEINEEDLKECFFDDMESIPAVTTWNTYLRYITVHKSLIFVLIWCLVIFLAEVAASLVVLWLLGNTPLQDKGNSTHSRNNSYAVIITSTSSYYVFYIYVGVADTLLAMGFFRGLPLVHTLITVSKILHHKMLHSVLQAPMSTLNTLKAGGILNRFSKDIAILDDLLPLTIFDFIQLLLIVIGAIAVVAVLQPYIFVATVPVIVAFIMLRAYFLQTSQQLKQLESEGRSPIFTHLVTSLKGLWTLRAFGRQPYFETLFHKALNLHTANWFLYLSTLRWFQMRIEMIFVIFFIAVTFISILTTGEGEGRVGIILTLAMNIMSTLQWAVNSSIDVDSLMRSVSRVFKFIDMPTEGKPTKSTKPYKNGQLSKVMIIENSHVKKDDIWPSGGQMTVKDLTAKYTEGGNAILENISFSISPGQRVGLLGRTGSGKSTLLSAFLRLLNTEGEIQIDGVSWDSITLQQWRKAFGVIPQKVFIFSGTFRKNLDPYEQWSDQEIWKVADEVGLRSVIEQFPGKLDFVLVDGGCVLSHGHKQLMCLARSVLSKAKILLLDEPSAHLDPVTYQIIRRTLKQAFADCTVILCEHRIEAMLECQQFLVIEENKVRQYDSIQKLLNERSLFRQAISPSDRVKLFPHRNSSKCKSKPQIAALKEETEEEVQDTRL", "assay": "CAL PDZ peptide-binding inhibitors, dose response, biochemical, fluorescence polarization, Cerulean-tagged CAL PDZ, cherry-picks (AID 504773)"}, "Genome polyprotein": {"molecular_target": "Genome polyprotein (dengue virus type 2, UniProt P29990)", "sequence (P29990 2492-3391 limits assumed)": "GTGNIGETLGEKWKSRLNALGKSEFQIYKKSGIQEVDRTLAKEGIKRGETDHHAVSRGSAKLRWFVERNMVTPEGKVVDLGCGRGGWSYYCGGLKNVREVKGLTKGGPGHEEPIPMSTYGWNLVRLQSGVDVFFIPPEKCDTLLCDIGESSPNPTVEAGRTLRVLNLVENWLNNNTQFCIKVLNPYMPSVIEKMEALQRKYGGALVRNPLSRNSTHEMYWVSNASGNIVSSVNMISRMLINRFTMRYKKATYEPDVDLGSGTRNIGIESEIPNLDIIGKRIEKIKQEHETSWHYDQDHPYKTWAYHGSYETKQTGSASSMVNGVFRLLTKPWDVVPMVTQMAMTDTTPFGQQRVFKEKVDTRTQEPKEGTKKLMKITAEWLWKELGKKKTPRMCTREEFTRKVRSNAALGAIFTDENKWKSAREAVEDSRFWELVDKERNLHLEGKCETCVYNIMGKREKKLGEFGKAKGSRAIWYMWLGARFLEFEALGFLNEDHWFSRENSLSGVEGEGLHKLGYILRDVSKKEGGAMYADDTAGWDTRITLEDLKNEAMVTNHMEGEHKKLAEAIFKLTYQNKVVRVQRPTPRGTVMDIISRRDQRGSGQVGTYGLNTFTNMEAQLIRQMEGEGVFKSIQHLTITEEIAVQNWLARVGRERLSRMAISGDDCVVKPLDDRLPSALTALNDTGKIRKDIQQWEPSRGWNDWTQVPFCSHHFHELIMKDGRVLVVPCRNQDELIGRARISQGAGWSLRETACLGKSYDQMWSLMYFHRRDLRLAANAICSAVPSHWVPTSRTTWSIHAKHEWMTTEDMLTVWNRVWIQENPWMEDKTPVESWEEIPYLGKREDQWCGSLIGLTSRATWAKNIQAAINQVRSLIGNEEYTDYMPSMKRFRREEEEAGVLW", "assay": "Dengue-2 NS5 methyltransferase inhibitors, primary screen, biochemical, confirmation dose response (AID 588689)", "type": "functional"}, "[5]": {"assay": "Intein inhibitors as potential Tuberculosis drugs, a cytotoxicity screen. [Related pubchem assays (depositor defined):AID2221, AID2223, AID434968, AID435010, AID449749, AID449750, AID489010]", "type": "functional"}, "Paired box protein Pax-8": {"molecular_target": "Paired box protein Pax-8 (Homo sapiens, UniProt Q06710)", "sequence (Q06710 whole entry)": "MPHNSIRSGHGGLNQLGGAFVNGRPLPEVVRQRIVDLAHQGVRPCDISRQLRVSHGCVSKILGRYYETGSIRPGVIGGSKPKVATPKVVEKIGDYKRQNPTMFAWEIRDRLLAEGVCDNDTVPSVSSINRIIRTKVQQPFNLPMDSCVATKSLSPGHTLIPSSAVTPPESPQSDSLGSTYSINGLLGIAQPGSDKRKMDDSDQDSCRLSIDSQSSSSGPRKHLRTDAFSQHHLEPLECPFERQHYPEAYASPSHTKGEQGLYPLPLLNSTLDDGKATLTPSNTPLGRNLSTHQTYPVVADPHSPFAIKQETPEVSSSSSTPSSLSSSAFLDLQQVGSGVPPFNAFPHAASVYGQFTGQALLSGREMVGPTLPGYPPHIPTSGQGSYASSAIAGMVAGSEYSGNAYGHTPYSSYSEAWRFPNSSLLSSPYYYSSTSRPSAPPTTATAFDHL", "assay": "inhibitors of PAX8-driven TPO luciferase reporter, dose response, RMG-I cells, cherry-pick (AID 687027);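 note: luciferase reporter driven by Pax8 target thyroperoxidase promoter measured by SteadyGlo luminescence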", "type": "functional, cell-based"}}, "note": "Active and inactive are the calls of the source.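 Throughout, for CC50: cells exposed to compound for 72 hours before luminescence readout.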"}
{"smiles": "Cc1cccc(N=Nc2ccc(N(C)C)cc2)c1", "values": [{"measurement": "AC50", "setting": "[1]", "value": "14.2 µM (active)"}]}
{"smiles": "Oc1ccccc1/C=C/c1noc(-c2ccccc2O)n1", "values": [{"measurement": "IC50", "setting": "HEK293", "value": "> 67.5 µM (inactive)"}, {"measurement": "IC50", "setting": "[2]", "value": "> 67.6 µM (inactive)"}, {"measurement": "IC50", "setting": "[3]", "value": "62.4 µM (active)"}]}
{"smiles": "O=C(O)CSc1cc(NS(=O)(=O)c2ccc(Cl)cc2)c2ccccc2c1O", "values": [{"measurement": "AC50", "setting": "[4]", "value": "30 µM (active)"}, {"measurement": "IC50", "setting": "Genome polyprotein", "value": "7.15 µM (active)"}]}
{"smiles": "Cc1nn(-c2ccccc2)c(Cl)c1CN(C(=O)CCl)c1ccc(Cl)cc1", "values": [{"measurement": "CC50", "setting": "[5]", "value": "2.06 µM (active)"}, {"measurement": "AC50", "setting": "Paired box protein Pax-8", "value": "3.19 µM (active)"}]}
